Measurements as given in the supplement of paper PMC10307832.

Experiments:
Assay in all cases: relative viability (nuclei count vs DMSO), 5 days (fraction); higher = more cells survive
Metformin + Pictilisib = compound: CN(C)C(=N)NC(=N)N [Metformin] + CS(=O)(=O)N1CCN(Cc2cc3nc(-c4cccc5[nH]ncc45)nc(N4CCOCC4)c3s2)CC1 [Pictilisib] (partner 1 µM)
In short: (§1)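 Lung cancer cell lines were pin-tool dosed in 1536-well plates on the day after seeding, with either a lone drug or a fixed anchor-drug dose plus five library-drug doses (not always all listed) in √10 steps. Nuclei were counted on 4× images after 5 days. Relative viability is the ratio of treated-well to vehicle-well nuclei counts, with each value a median of duplicate plates.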

Metformin + OSI-027 = compound: CN(C)C(=N)NC(=N)N [Metformin] + COc1cccc2cc(-c3nc([C@H]4CC[C@H](C(=O)O)CC4)n4ncnc(N)c34)[nH]c12 [OSI-027] (partner 0.5 µM)
In short: as §1

Apatinib + Dasatinib = compound: N#CC1(c2ccc(NC(=O)c3cccnc3NCc3ccncc3)cc2)CCCC1 [Apatinib] + Cc1nc(Nc2ncc(C(=O)Nc3c(C)cccc3Cl)s2)cc(N2CCN(CCO)CC2)n1 [Dasatinib] (partner 0.075 µM)
In short: as §1

Apatinib + Lapatinib = compound: N#CC1(c2ccc(NC(=O)c3cccnc3NCc3ccncc3)cc2)CCCC1 [Apatinib] + CS(=O)(=O)CCNCc1ccc(-c2ccc3ncnc(Nc4ccc(OCc5cccc(F)c5)c(Cl)c4)c3c2)o1 [Lapatinib] (partner 2 µM)
In short: as §1

Cell Line | relative viability (Metformin + Pictilisib; first compound 10 µM) | relative viability (Metformin + Pictilisib; first compound 31.62 µM) | relative viability (Metformin + Pictilisib; first compound 100 µM) | relative viability (Metformin + Pictilisib; first compound 316.23 µM) | relative viability (Metformin + Pictilisib; first compound 1000 µM) | relative viability (Metformin + OSI-027; first compound 10 µM) | relative viability (Metformin + OSI-027; first compound 31.62 µM) | relative viability (Metformin + OSI-027; first compound 100 µM) | relative viability (Metformin + OSI-027; first compound 316.23 µM) | relative viability (Metformin + OSI-027; first compound 1000 µM) | relative viability (Apatinib + Dasatinib; first compound 0.08 µM) | relative viability (Apatinib + Dasatinib; first compound 0.253 µM) | relative viability (Apatinib + Dasatinib; first compound 0.8 µM) | relative viability (Apatinib + Dasatinib; first compound 2.53 µM) | relative viability (Apatinib + Dasatinib; first compound 8 µM) | relative viability (Apatinib + Lapatinib; first compound 0.08 µM) | relative viability (Apatinib + Lapatinib; first compound 0.253 µM) | relative viability (Apatinib + Lapatinib; first compound 0.8 µM) | relative viability (Apatinib + Lapatinib; first compound 2.53 µM) | relative viability (Apatinib + Lapatinib; first compound 8 µM)
BEN | 0.831 | 0.754 | 0.626 | 0.625 | 0.769 | 0.271 | 0.275 | 0.3 | 0.314 | 0.263 | 0.251 | 0.27 | 0.245 | 0.242 | 0.265 | 0.604 | 0.67 | 0.764 | 0.578 | 0.591
EMC-BAC-2 | 0.475 | 0.536 | 0.528 | 0.523 | 0.523 | 0.419 | 0.397 | 0.365 | 0.399 | 0.356 | 0.32 | 0.428 | 0.349 | 0.282 | 0.293 | 0.954 | 0.886 | 0.878 | 0.877 | 0.807
NCI-H1355 | 0.503 | 0.439 | 0.438 | 0.435 | 0.504 | 0.434 | 0.373 | 0.396 | 0.416 | 0.406 | 0.682 | 0.791 | 0.687 | 0.621 | 0.614 | 1.06 | 0.963 | 0.973 | 0.923 | 0.944
SW 900 | – | – | – | – | – | 0.597 | 0.781 | 0.617 | 0.544 | 0.538 | 0.699 | 0.429 | 0.545 | 0.476 | 0.491 | – | – | – | – | –
A-427 | 0.79 | 0.896 | 0.713 | 0.68 | 0.763 | 0.45 | 0.493 | 0.44 | 0.458 | 0.492 | 0.706 | 0.66 | 0.798 | 0.671 | 0.575 | 1.06 | 1.1 | 1.06 | 0.984 | 0.982
NCI-H1793 | 0.29 | 0.399 | 0.304 | 0.268 | 0.38 | 0.395 | – | 0.315 | 0.238 | 0.253 | 0.427 | 0.345 | 0.337 | 0.37 | 0.3 | 0.553 | 0.616 | 0.736 | 0.544 | 0.604
NCI-H1563 | 0.605 | 0.651 | 0.62 | 0.624 | 0.646 | 0.742 | 0.797 | 0.778 | 0.722 | 0.866 | 0.444 | 0.41 | 0.406 | 0.475 | 0.451 | 0.682 | 1.03 | 0.943 | 0.891 | 0.834
EBC-1 | 0.508 | 0.444 | 0.467 | 0.306 | 0.313 | – | – | – | – | – | – | – | – | – | – | 0.194 | 0.197 | 0.235 | 0.231 | 0.237
NCI-H596 | 0.431 | 0.479 | 0.468 | 0.452 | 0.421 | 1.04 | 0.84 | 0.85 | 0.636 | 0.988 | 0.634 | 0.564 | 0.556 | 0.564 | 0.555 | 1.16 | 1.1 | 1.02 | 0.976 | 1.18
